In patent US20160102316A1, “STRESS TOLERANT PLANTS” (CONSEJO SUPERIOR DE INVESTIGACIONES CIENTIFICAS(CSIC), priority 2013, published 2016):

How the values were obtained:
HA-PYL8 transcript = HA-PYL8 transcript levels in ABA-treated seeds (semiquantitative RT-PCR); type: in vivo, Arabidopsis; conditions: oeHA-PYL8 seeds, ABA treatment for 24 h
Experimental: Semiquantitative PCR experiments from seedlings were performed using RNA prepared as afore-mentioned. RNA extraction from seeds was carried out as previously described (Onate-Sanchez and Vicente-Carbajosa, 2008). cDNA from all tissues was synthetized as described above. […] of one-fifth diluted cDNA was used to amplify DDA1-GFP, 3HA-PYL8 and the housekeeping gene ACTIN8 using the following primer:
The PCR conditions were as follows: 1 min at 94° C., 35 cycles of 15 s at 94° C., 1 min at 58-62° C., and 1 min 30 s at 72° C., and finally, 5 min at 72° C. 25

[1] = molecular target: T1, PP2C-ABA-PYL8 ternary complexes (Arabidopsis thaliana, UniProt Q9FGM1); conditions: ternary complex of PYL8 with ABA and clade A PP2C; cited from earlier work
T1 sequence (Q9FGM1 1-188): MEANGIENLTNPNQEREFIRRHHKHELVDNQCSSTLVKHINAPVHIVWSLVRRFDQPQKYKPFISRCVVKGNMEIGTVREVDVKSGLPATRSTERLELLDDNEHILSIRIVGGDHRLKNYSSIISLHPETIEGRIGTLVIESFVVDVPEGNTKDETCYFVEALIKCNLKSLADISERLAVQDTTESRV

3HA-PYL8 [2] = molecular target: T2, 3HA-PYL8 (Arabidopsis thaliana, UniProt Q9FGM1); assay: In vivo protein degradation assay (cycloheximide time course, immunoblot); conditions: 8-d-old seedlings treated with cycloheximide, 50 μM ABA
T2 construct: expressed in transfected cells; host or cells: stably transformed Arabidopsis thaliana (Col-0) plants, line oe3HA-PYL8: seedlings or imbibed seeds; seed lines in pyl8-1 background, some crossed with oeDDA1-GFP
T2 sequence (Q9FGM1 1-188): T1 sequence (Q9FGM1 1-188)
Experimental: (§1) For protein extraction from seedlings, proteins were extracted in buffer containing 50 mM Tris-HCl pH 7.4, 150 mM NaCl, 10mM MgCl2, 1 mM PMSF, 0.1%NP-40 and 1× complete protease inhibitor (Roche). After centrifugation at 16,000 g at 4° C., the supernatants were collected. This step was repeated twice. For protein extraction from seeds, seeds were frozen in liquid N2 and then homogenized in buffer containing 7 M urea, 2 M thiourea, 4% 3-[(3-cholamidopropyl)dimethylammonio]-1-propanesulfonate (CHAPS; w/v), 18 mM Tris-HCl pH 7.5, 0,2% Triton X100, 1× complete protease inhibitor (Roche). After 10 min incubation at 4° C. with rotation. DTT was added to protein extracts (14 mM final concentration), prior to 20 min incubation at 4° C. Extracts were clarified by centrifugation as afore-mentioned. Protein concentration in final supernatants was determined using a Bio-Rad Protein Assay kit. For in vivo co-immunoprecipitation assays, normalized seedling protein extracts were incubated with 5 μl anti-GFP antibody (Living colors Full length A.V. Polyclonal Antibody, Clontech) for 1 h at 4° C. with rotation. 10 μl of protein A-coupled beads (prewashed twice with 0.1 M Glycine pH 2.7) were added to the samples and incubated for an additional hour at 4° C. with rotation. […]

3HA-PYL8 [3] = molecular target: T2, 3HA-PYL8; assay: Immunoblot of 3HA-PYL8 levels in imbibed seeds; type: in vivo; conditions: 24 h in MS media with 3 μM ABA
Experimental: (G) Immunoblot analysis of 3HA-PYL8 levels in seeds corresponding to oe3HA-PYL8/oeDDA1-GFP and control (oe3HA-PYL8) plants. Both lines were in the pyl8-1 background. Prior to protein extraction, imbibed seeds were maintained for 24 h in MS media with or without 3 μM ABA. Anti-HA and anti-RPT5 antibodies were used to detect 3HA-PYL8 and for loading control purposes, respectively.
as §1, with “kit.” for “kit. For in vivo co-immunoprecipitation assays, normalized seedling protein extracts were incubated with 5 μl anti-GFP antibody (Living colors Full length A.V. Polyclonal Antibody, Clontech) for 1 h at 4° C. with rotation. 10 μl of protein A-coupled beads (prewashed twice with 0.1 M Glycine pH 2.7) were added to the samples and incubated for an additional hour at 4° C. with rotation.”

PYL8 gene expression = conditions: after 3 h of ABA treatment; cited from earlier work

CC1=CC(=O)CC(C)(C)[C@@]1(O)/C=C/C(C)=C\C(=O)O [ABA, abscisic acid]
HA-PYL8 transcript levels (HA-PYL8 transcript): reduced HA-PYL8 transcript levels
Kd [1]: 20 to 40 nM
3HA-PYL8 degradation (3HA-PYL8 [2]): blocked 3HA-PYL8 degradation
3HA-PYL8 accumulation in seeds (3HA-PYL8 [3]): increased accumulation of 3HA-PYL8
PYL8 gene expression (PYL8 gene expression): reduces PYL8 gene expression
